Reference: article PMC10845205, “Discovery of novel antibacterial agent for the infected wound treatment: all-hydrocarbon stapling optimization of LL-37” (Theranostics, 2024)
Values after ≈ are worked out from the molar mass of the structure shown. Positions of bridges follow the written chain, without caps; N, C: chain ends. Non-standard residues stand in square brackets, D forms with d. Residues, ends and D or L forms follow the SMILES beside them. S5 = C=CCCC[C@](C)(N)C(=O)O

Key:
[1] = system: A. baumannii; details: CLSI broth microdilution, MH-II broth, 24 h 37 °C, AlamarBlue; ATCC 19606; 3 independent measurements
Experimental: (§1) According to the protocol of Clinical & Laboratory Standards Institute, the minimum inhibitory concentration (MIC) of the linear and stapled peptides against a panel of gram-positive and gram-negative bacteria was determined by the broth microdilution method. […]
(§2) Bacterial strains and culture
(§3) Bacterial type stains ATCC 25923 S. aureus, ATCC 12228 S. epidermidis, ATCC […]
(§4) aeruginosa and ATCC 13883 K. pneumoniae were obtained from Shanghai Bioresource Collection Center. The bacterial culture medium was purchased from Oxoid and autoclaved according to the instructions from manufacturer. The isolated strains were cultured in Mueller Hinton II broth and continuously shaken at 140 rpm for 18 hours to the middle of the exponential growth phase at 37 °C with an OD value of 0.4-0.5.
(§5) Bacterial suspensions with an OD value of 0.1, approximately […], were then diluted for further assays.
(§6) The minimal inhibition concentration (MIC) of the linear and stapled peptides was determined using the microbroth dilution method from the Clinical and Laboratory Standards Institute (CLSI)[2, 3]. Bacterial suspensions of 10 6 CFU/mL were prepared in MH-II broth and peptide solutions at varying concentrations were prepared in phosphate buffer saline (PBS). Then 50 μL peptide solution and 50 μL bacterial suspension were mixed in a 96 -well plate. Plates were incubated for 24 hours at 37 °C.
(§7) 10 μL AlamarBlue cell viability reagent (ThermoFisher Scientific, UK) was added to each well, then the plate was re -incubated for a further 2 hours at 37 °C. The MIC was recorded as the minimum concentration of peptides required to completely in hibit bacteria growth. For serum stability assessment, the peptide solutions were pre - incubated with 50% human serum for 4 h before the MIC determination. Experiments were performed in 3 independent measurements. […]

[2] = system: P. aeruginosa; details: CLSI broth microdilution, MH-II broth, 24 h 37 °C, AlamarBlue; ATCC 27853; 3 independent measurements
Experimental: as §1, §2, §3, §4, §5, §6, §7

[3] = system: S. epidermidis; details: CLSI broth microdilution, MH-II broth, 24 h 37 °C, AlamarBlue; ATCC 12228; 3 independent measurements
Experimental: as §1, §2, §3, §4, §5, §6, §7

[4] = system: E. coli; details: CLSI broth microdilution, MH-II broth, 24 h 37 °C, AlamarBlue; ATCC 25922; 3 independent measurements
Experimental: as §1, §2, §3, §4, §5, §6, §7

[5] = system: K. pneumoniae; details: CLSI broth microdilution, MH-II broth, 24 h 37 °C, AlamarBlue; ATCC 13883; 3 independent measurements
Experimental: as §1, §2, §3, §4, §5, §6, §7

[6] = system: S. aureus; details: CLSI broth microdilution, MH-II broth, 10^6 CFU/mL, 24 h 37 °C, AlamarBlue; ATCC 25923; 3 independent measurements
Experimental: as §1, §2, §3, §4, §5, §6, §7

[7] = system: E. faecalis; details: CLSI broth microdilution, MH-II broth, 24 h 37 °C, AlamarBlue; ATCC 29212; 3 independent measurements
Experimental: as §1, §2, §3, §4, §5, §6, §7

[8] = Hydrophobicity by RP-HPLC retention time; format: physicochemical; details: chromatographic, reverse-phase C18 column, CH3CN/H2O containing 0.1%TFA from 10% to 90% over 20 min, UV 220 nm
Source text: To uncover the structure-activity relationship of KR-12 and its stapled derivatives, their physicochemical properties in terms of hydrophobicity, net charge and α-helicity were investigated (Table 2).

[9] = system: NIH-3T3 cell; details: CCK-8, 24 h incubation, nonlinear regression, 3 independent measurements
Experimental: For development of the stapled KR-12 derivatives to treat bacterial infections in vivo, their cytotoxicity was examined via the CCK-8 assay, which could provide a quantitative assessment of cell viability based on the dehydrogenase activity. The mouse embryonic fibroblast NIH-3T3 cell was selected and incubated with various concentrations of KR-12 and its stapled derivatives.
Mouse embryonic fibroblast cells NIH-3T3 and mouse monocyte macrophage leukemia cells RAW264.7 were obtained from Shanghai Institute of Biochemistry and Cell Biology, Chinese Academy of Sciences. These two cells were maintained in DMEM and RPMI-1640, respectively. Both media were supplemented with 10% FBS and 1% 100 U/mL penicillin-streptomycin solution. Cells were maintained at 37 °C in a 5% CO2 and humidified incubator. Replace the culture medium every day until the cell grows to confluence. Cells were then treated with 0.25% trypsin–EDTA and split using fresh medium for either passage or analysis.
CCK-8 cell counting kit was utilized to examine the cytotoxicity of the linear and stapled peptides. NIH-3T3 cell was planked at a density of 1.5×10^4 cell/well in a 96 - well plate and incubated it for 24 hours at 37 °C. Cells were then treated with different concentrations of peptides in fresh DMEM and incubated for 24 hours before the addition of 10 μL CCK -8 and incubation for a further 1 hour. Measure the absorbance at 450nm using a microplate reader (BioTek, USA) and calculate the percentage of cell viability as: cell viability (%) = (Abspeptide-Absblank)/(Abscontrol-Absblank)×100%, where Abscontrol is the absorbance of cells treated with PBS and Abs blank is the absorbance of the cell-free medium. The data was fitted using the nonlinear regression within

## CC[C@H](C)[C@H](NC(=O)[C@H](CCCNC(=N)N)NC(=O)[C@H](CCCCN)NC(C)=O)C(=O)N[C@H](C(=O)N[C@@H](CCC(N)=O)C(=O)N[C@@H](CCCNC(=N)N)C(=O)N[C@H](C(=O)N[C@@]1(C)CCCC=CCCC[C@@](C)(C(N)=O)NC(=O)[C@H](CC(C)C)NC(=O)[C@H](Cc2ccccc2)NC(=O)[C@H](CC(=O)O)NC1=O)[C@@H](C)CC)C(C)C [KR-12 (K8, R12)] (Ac-KRIVQRI[S5]DFL[S5]-NH2; staple 8-12)
[1]
  MIC A. baumannii: 16 µg/mL (≈ 10.1 µM)
[2]
  MIC P. aeruginosa: 256 µg/mL (≈ 162 µM)
[3]
  MIC S. epidermidis: 16 µg/mL (≈ 10.1 µM)
[4]
  MIC E. coli: 64 µg/mL (≈ 40.5 µM)
[5]
  MIC K. pneumoniae: > 256 µg/mL
[6]
  MIC S. aureus: 16 µg/mL (≈ 10.1 µM)
[7]
  MIC E. faecalis: 16 µg/mL (≈ 10.1 µM)
[8]
  TR (retention time, measure of hydrophobicity): 18.2 min
[9]
  IC50 against NIH-3T3 cell: 52.8 µg/mL (≈ 33.4 µM)
